Measurements: article PMC9400670, “Establishing the selective phospholipid membrane coordination, permeation and lysis properties for a series of ‘druggable’ supramolecular self-associating antimicrobial amphiphiles” (Chemical Science, 2022)
Like-named read-outs stand apart in the source and are kept apart here.

Key:
[1] = tested on: PC lipid vesicles; experiment: Synthetic phospholipid vesicle membrane binding assay (fluorescence polarisation), PC vesicles; conditions: lipid vesicles added to SSA (0.15 mM); n = 3; error = standard error; SSA alone set to 100 mP
Description: (§1) For intrinsically fluorescent SSAs 5, 6 and 8–12, FP titration experiments enabled the observation of SSA: phospholipid vesicle interactions. Here, an increase in FP value indicates an increase in the apparent size of the SSA as it interacts with the phospholipid vesicle. […]
(§2) Fluorescence polarisation: Lipid films were resuspended in Buffer (150 mM KCl, 10 mM HEPES, pH 7.4, 2 mM EGTA) and subjected to 9 freeze-thaw cycles in liquid nitrogen and extruded 20 times through a 200 nm polycarbonate membrane. Black bottom 96-well plates were prepared by serially diluting desired vesicle solution across the plate, the appropriate SSA solution (100 µL, 0.15 mM) was added to each well to give a total well volume of 200 µL. Fluorescent SSA solutions were set to a FP value of 100 mP. Data were acquired in endpoint mode. […]

[2] = tested on: E. coli polar lipid vesicles; experiment: Synthetic phospholipid vesicle membrane binding assay (fluorescence polarisation), E. coli polar vesicles; conditions: lipid vesicles added to SSA (0.15 mM); n = 3; error = standard error; SSA alone set to 100 mP
Description: as §1, §2

[3] = tested on: E. coli DH10B; conditions: cited from earlier work; for MIC50 E. coli: E. coli DH10B, n = 3, 0.5 McFarland standard, number in bracket = efficacy rank
[4] = Caco-2 permeability assay; format: in vitro ADME, human; conditions: human; for recovery at 120 min, 10 µM: Caco-2, % SSA recovered from the assay after 2 hours; for Papp B→A at 120 min, 10 µM: Caco-2, Caco-2
Description: Section 4: DMPK Methods and Further Discussion […]
Caco-2 Permeability studies: The permeability assay for SSA 1-6 and 10 was performed at Cyprotex Discovery Limited (Macclesfield, UK) and analysed at Cancer Research Horizons. SSA 1-6 and 10 were incubated at a final concentration of 10 uM with human intestinal Caco-2 cells at 37°C, 5% CO2 with a relative humidity of 95%. After 120 minutes the apical compartment inserts and the companion plates were separated, and the apical and basolateral samples were transferred. Incubations were conducted in duplicate and the fluorescent membrane integrity marker; Lucifer Yellow was co-incubated with the SSA compounds at the start of the assay. Compounds of known permeability were used as controls and were within acceptance criteria. Further processing is described in:
Sample preparation and liquid chromatography-mass spectrometry analysis.
Sample preparation and liquid chromatography-mass spectrometry analysis: All samples were centrifuged at 3500 rpm at 4°C for 10 min to precipitate protein and enable sampling of supernatant prior to appropriate dilution for liquid chromatography-mass spectrometry (LC-MS/MS analysis). […]
(1.5 µm, 50 x 2.1 mm) at a temperature of 40°C and a binary mobile phase gradient at a flow rate of […]
0.4 mL/min. […]
For the purpose of apparent permeability determination, samples were analysed using a Waters I-Class ultra-high-performance liquid chromatography (UHPLC) system coupled to a Waters Vion mass spectrometer (Waters, Elstree, UK). Separation of analytes was achieved used an Accucore Vanquish C18+ column (1.5 µm, 50 x 2.1 mm) at a temperature of 40°C and a binary mobile phase gradient at a flow rate of 0.4 mL/min. Initial LC conditions for SSA 1-4 comprised 66% solvent A (0.1% formic acid + 5 mM ammonium acetate in water), 33% solvent B (0.1% formic acid + 5 mM ammonium acetate in methanol); this was ramped to 63% B at 1.8 min and 95% B at 1.9 min, held for 0.5 min and then immediately returned to initial conditions and held for the remaining 0.5 min of the method. Initial LC conditions for SSA 5-10 comprised 54% solvent A (0.1% formic acid + 5 mM ammonium acetate in water), 46% solvent B (0.1% formic acid + 5 mM ammonium acetate in methanol); this was ramped to 67% B at 1.8 min and 95% B at 1.9 min, held for 0.5 min and then immediately returned to initial conditions and held for the remaining 0.5 min of the method.
Sample analysis was by electrospray ionisation in negative ion mode. The capillary voltage was 2.5 kV, desolvation gas was 600°C.
For the purpose of PK determination of SSA 5, samples were analysed using a Waters I-Class ultra-high-performance liquid chromatography (UHPLC) system coupled to a Waters Xevo TQ-XS mass spectrometer. Separation of analytes was achieved using an Accucore Vanquish C18+ column (1.5 µm, 50 x 2.1 mm) at a temperature of 40°C and a binary mobile phase gradient at a flow rate of 0.4 mL/min. Initial LC conditions comprised 54% solvent A (0.1% formic acid + 5 mM ammonium acetate in water), 46% solvent B (0.1% formic acid + 5 mM ammonium acetate in methanol); this was ramped to 67% B at 1.8 min and 95% B at 1.9 min, held for 0.5 min and then immediately returned to initial conditions and held for the remaining 0.5 min of the method. Sample analysis was by electrospray ionisation combined with multiple reaction monitoring in negative ion mode. The […]
Mean blood concentration-time profile: Within these studies SSAs 3 and 5 were dosed at 1 mg/kg, to female CD-1 mice (n=9 per SSA) via an intravenous tail vein bolus dose formulation as solutions in 2 % DMSO/98 % water. Blood taken from the mouse tail vein was extracted by protein precipitation.
SSA concentrations were calculated through UPLC-MS/MS techniques, with tolbutamide as the internal standard. The assay met the acceptance criteria with >7 calibration standards within ± 20% of nominal concentration. The lower limit of quantitation was 2 ng/mL for both compounds. PK […]

[5] = 10 uM, 120 minutes, n = 2 technical repeats, read-out: Papp (B-A)
[6] = in words, read-out: Papp (B-A) class

Structure (SMILES) | increase in FP, PC [1] [mP] | increase in FP, E. coli polar [2] [mP] | initial antimicrobial screening, inhibition of growth, E. coli ([3]; 3.3 mM, after 900 min) | initial antimicrobial screening outcome, E. coli ([3]; Table S3, screening at 3.3 mM) | recovery at 120 min, 10 µM ([4]; read-out: Recovery (A-B)) [%] | recovery at 120 min, 10 µM ([4]; read-out: Recovery (B-A)) [%] | Papp B→A at 120 min, 10 µM [4, 5] [×10⁻⁶ cm/s] | MIC50 E. coli ([3]; after 900 min) | Papp B→A at 120 min, 10 µM [4, 6] [×10⁻⁶ cm/s]
Cc1ccc2nc(-c3ccc(NC(=O)NCCC(=O)O)cc3)sc2c1 [SSA 9] | 35 ± 10 | 53 ± 3 |  |  |  |  |  |  | 
O=C(NCS(=O)(=O)O)Nc1ccc(C(F)(F)F)cc1 [SSA 3] |  |  | ^c (SSA did not pass initial antimicrobial screening, exhibited <10% inhibition of growth at 3.3 mM after 900 min and therefore excluded from further study) | Fail |  |  |  |  | 
O=C(O)CNC(=O)Nc1ccc(C(F)(F)F)cc1 [SSA 4] |  |  |  |  | 93 | 96 | 2.3 | 1.25(2) mM | 
O=C(NCS(=O)(=O)O)Nc1ccccc1-c1nc2ccccc2s1 [SSA 5] | 87 ± 4 | 40 ± 4 |  |  | 79 | 107 | 21 | 3.57(5) mM | > 10
O=C(NCS(=O)(=O)O)Nc1ccc(-c2nc3ccccc3s2)cc1 [SSA 8] | 35 ± 4 | 27 ± 2 |  |  |  |  |  |  | 
O=C(NCS(=O)(=O)O)Nc1ccc(C(F)(F)F)cc1 [SSA 1] |  |  |  |  | 93 | 101 | 5.4 | 3.85(7) mM | 
Cc1ccc2nc(-c3ccc(NC(=O)NCS(=O)(=O)O)cc3)sc2c1 [SSA 6] | 47 ± 8 | 35 ± 3 |  |  | 59 | 86 | 11 | 5.02(8) mM | > 10
Cc1ccc2nc(-c3ccc(NC(=O)NCC(=O)O)cc3)sc2c1 [SSA 11] | 68 ± 1 | 79 ± 1 |  |  |  |  |  |  | 
Cc1ccc2nc(-c3ccc(NC(=S)NCS(=O)(=O)O)cc3)sc2c1 [SSA 12] | 163 ± 6 | 176 ± 2 |  |  |  |  |  |  | 
Cc1ccc2nc(-c3ccc(NC(=O)NCCCS(=O)(=O)O)cc3)sc2c1 [SSA 10] | 26 ± 1 | 25 ± 14 |  |  | 54 | 95 | 6.7 |  | 
O=C(NCCCS(=O)(=O)O)Nc1ccc(C(F)(F)F)cc1 [SSA 2] |  |  |  |  | 97 | 102 | 1.7 | 1.48(3) mM | 
